Data: PMC8291137 (ACS Medicinal Chemistry Letters, 2021)

Legend:
[1] = Shake-flask aqueous solubility in Britton-Robinson buffer

Cn1cc(-c2cc(-c3cc(Cl)cc(OCc4scnc4C(F)(F)F)c3)c(=O)n(-c3cccnc3)c2)c(=O)[nH]c1=O [Compound 21]
cytotoxicity (in words) (Vero E6 cells): no cytotoxicity | aqueous solubility (in words) [1]: good aqueous solubility
